IC50 data for 38 molecules are collected here from patent US11046691B1 (IDEAYA BIOSCIENCES, INC., priority 2018, dated 2021).

One may read the IC50 as the midpoint of a concentration-inhibition curve. Higher therefore signals a need for much substance.

T1 sequence (P31153 whole entry): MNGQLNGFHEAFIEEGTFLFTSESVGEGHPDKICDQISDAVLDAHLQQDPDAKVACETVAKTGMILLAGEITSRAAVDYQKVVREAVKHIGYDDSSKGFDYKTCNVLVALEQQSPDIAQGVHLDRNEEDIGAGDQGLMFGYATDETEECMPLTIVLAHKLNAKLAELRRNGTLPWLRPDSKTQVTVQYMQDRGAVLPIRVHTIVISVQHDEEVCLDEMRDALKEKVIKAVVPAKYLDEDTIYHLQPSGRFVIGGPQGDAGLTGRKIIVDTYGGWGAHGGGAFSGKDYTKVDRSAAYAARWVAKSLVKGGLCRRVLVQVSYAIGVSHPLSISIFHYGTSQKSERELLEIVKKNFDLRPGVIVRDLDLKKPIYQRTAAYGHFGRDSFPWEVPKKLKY

One assay addresses T1, hMAT2A (Homo sapiens (Human), UniProt P31153). As to the kind of experiment: Phosphate Sensor Fluorescence Assay (MAT2A enzyme inhibition). It counts as biochemical. The following applies: L-methionine 500 uM, ATP 500 uM, class symbols. An outline of the steps:
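Recombinant MAT2A preincubated 15 min at room temperature with compound, then reacted 1 h at room temperature with 500 uM L-methionine and 500 uM ATP in Tris pH 7.5 buffer containing PNP/7-MEG.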
With `O=c1nc(N[C@@H]2C[C@@H]2F)c2ccc(C3CC3)cc2n1-c1ccccc1Cl` [Example 413, 4-[((2S,1R)-2-fluorocyclopropyl)amino]-1-(2-chlorophenyl)-7-cyclopropyl-hydroquinazolin-2-one], the IC50 is less than 0.2 µM.

As for `CNc1nc(=O)n(-c2ccccc2)c2nc(C(C)C)ccc12` [Example 414, 4-(methylamino)-7-(methylethyl)-1-phenylpyrido[2,3-d]pyrimidin-2(1H)-2-one], the half-inhibitory concentration (IC50) is less than 0.2 µM.

Molecule `CNc1nc(=O)n(-c2ccccc2Cl)c2cc(C3CC3)c(Br)cc12` [Example 417, 6-bromo-1-(2-chlorophenyl)-7-cyclo-propyl-4-(methylamino)hydro-quinazolin-2-one] had an IC50 of less than 0.2 µM.

`O=c1nc(N[C@H]2C[C@@H]2F)c2ccc(OC(F)(F)F)cc2n1-c1ccccc1Cl` [Example 418, 1-(2-chlorophenyl)-4-(((1S,2S)-2-fluorocyclopropyl)amino)-7-(trifluoro-methoxy)quinazolin-2(1H)-one]: the IC50 was less than 0.2 µM.

`CNc1nc(=O)n(-c2cccc(CC(=O)O)c2)c2cc(Cl)ccc12` [Example 419, 2-(3-(7-chloro-4-(methylamino)-2-oxoquinazolin-1(2H)-yl)phenyl)acetic acid] returned an IC50 of less than 0.2 µM.

`CNc1nc(=O)n(-c2ccccc2)c2cc(C(F)(F)F)cc(F)c12` [Example 420, 5-fluoro-4-(methylamino)-1-phenyl-7-(trifluoromethyl)hydroquinazolin-2-one]: the half-inhibitory concentration (IC50) is less than 0.2 µM.

With `O=c1nc(Nc2ccncc2)c2ccc(C(F)(F)F)nc2n1-c1ccccc1Cl` [Example 421, 1-(2-chlorophenyl)-4-(pyridin-4-yl-amino)-7-(trifluoromethyl)pyrido[2,3-d]-pyrimidin-2(1H)-one], the IC50 is less than 0.2 µM.

`O=c1nc(OC2CC2)c2ccc(C(F)(F)F)nc2n1-c1ccccc1Cl` [Example 422, 1-(2-chlorophenyl)-4-cyclopropoxy-7-(trifluoromethyl)pyrido[2,3-d]pyrimidin-2(1H)-one] displayed an IC50 of less than 0.2 µM.

Consider `COc1nc(=O)n(-c2ccccc2Cl)c2cc(C3CC3)ccc12` [Example 423, 1-(2-chlorophenyl)-7-cyclopropyl-4-methoxyhydroquinazolin-2-one], for which the concentration for half-maximal inhibition (IC50) is less than 0.2 µM.

In turn, `O=c1nc(N[C@H]2C[C@H]2F)c2ccc(C(F)(F)F)cc2n1-c1ccccc1` [Example 424, 4-(((1S,2R)-2-fluorocyclopropyl)amino)-1-phenyl-7-(trifluoromethyl)quinazolin-2(1H)-one] had an IC50 of less than 0.2 µM.

For `CC(F)(F)c1ccc2c(NCC3CC3)nc(=O)n(-c3ccccc3Cl)c2c1` [Example 425, 1-(2-chlorophenyl)-4-((cyclopropyl-methyl)amino)-7-(1,1-difluoroethyl)-quinazolin-2(1H)-one], the IC50 was less than 0.2 µM.

`CNc1nc(=O)n(-c2ccccc2Cl)c2cc(C3CC3)ccc12` [Example 426, 1-(2-chlorophenyl)-7-cyclopropyl-4-(methylamino)quinazolin-2(1H)-one]: the half-inhibitory concentration (IC50) is less than 0.2 µM.

The next assay addresses T1, hMAT2A. Nature of the assay: Malachite Green Assay (MAT2A enzyme inhibition). The assay is classed as biochemical. The following applies: hMAT2A 50 nM, substrates 500 uM each, 1 hour. As to the method: The ability of the compound of present disclosure to inhibit MAT2A enzyme was determined using the Malachite Green or Phosphate Sensor Fluorescence Assay described below.
L-methionine Substrate: Alfa Aesar catalog #J61904
ATP Substrate: Alfa Aesar cat #J60336
Malachite Green Detection Reagent: Millipore Sigma catalog #MAK307-1KT
Assay buffer: 50 mM Tris, pH 7.5/50 mM KCl/10 mM MgCl2/0.01% Brij-35/1 mM DTT/0.1% BGG
The plate was centrifuged at 1000 rpm for 1 minute and then incubated at room temperature for 1 hour. 5 μL of malachite green detection reagent was added to all the test wells and the plate was centrifuged at 1000 rpm for 1 minute and then incubated at room temperature for 30 minutes. The plate was read for absorbance at 620 nm on a plate reader (e.g., Infinite M1000).
`CNc1nc(=O)n(-c2ccccn2)c2cc(Cl)ccc12` had a half-inhibitory concentration (IC50) of 0.2 to 0.5 µM.

`CNc1nc(=O)n(-c2ncccn2)c2cc(Cl)ccc12` came in with a half-maximal inhibitory concentration (IC50) of less than 0.2 µM.

Turning to `CNc1nc(=O)n(-c2cnccn2)c2cc(Cl)ccc12`, the IC50 was in the range of 0.2 to 0.5 µM.

For `CNc1nc(=O)n(-c2cncnc2)c2cc(Cl)ccc12`, the IC50 was less than 0.2 µM.

Take `CNc1nc(=O)n(-c2cn[nH]c2)c2cc(Cl)ccc12`: the IC50 was less than 0.2 µM.

The molecule `CNc1nc(=O)n(-c2ccccc2)c2cc(Br)ccc12` registered an IC50 of less than 0.2 µM.

Molecule `CNc1nc(=O)n(-c2cc(O)cc(F)c2)c2cc(Cl)ccc12` gave an IC50 of less than 0.2 µM.

`CNc1nc(=O)n(-c2ccccc2)c2cc(Cl)c(F)cc12` gave an IC50 of less than 0.2 µM.

Consider `CNc1nc(=O)n(-c2ccccc2)c2cc(Cl)cc(F)c12`, for which the 50% inhibitory concentration (IC50) was less than 0.2 µM.

Regarding `CNc1nc(=O)n(-c2ccncc2)c2cc(Cl)ccc12`, the IC50 is 1 to 10 µM.

The molecule `CNc1nc(=O)n(-c2ccccc2)c2cc(Cl)ccc12` [Example 2, 7-chloro-4-(methylamino)-1-phenylquinazolin-2(1H)-one] displayed a half-maximal inhibitory concentration (IC50) of less than 0.2 µM.

`CNc1nc(=O)n(-c2nccs2)c2cc(Cl)ccc12` [Example 17, 7-chloro-4-(methylamino)-1-(thiazol-2-yl)-quinazolin-2(1H)-one] showed a half-maximal inhibitory concentration (IC50) of less than 0.2 µM.

As for `CNc1nc(=O)n(-c2cncs2)c2cc(Cl)ccc12` [Example 18, 7-chloro-4-(methylamino)-1-(thiazol-5-yl)-quinazolin-2(1H)-one], the IC50 is less than 0.2 µM.

Turning to `O=c1nc(NC2COC2)c2ccc(Cl)cc2n1-c1ccccc1` [Example 21, 7-Chloro-4-(oxetan-3-ylamino)-1-phenylquinazolin-2(1H)-one], the half-maximal inhibitory concentration (IC50) was 0.2 to 0.5 µM.

The molecule `O=c1nc(N[C@H]2CCOC2)c2ccc(Cl)cc2n1-c1ccccc1` [Example 22, (S)-7-chloro-1-phenyl-4-((tetrahydro-furan-3-yl)amino)-quinazolin-2(1H)-one] registered a half-inhibitory concentration (IC50) of 0.2 to 0.5 µM.

Molecule `O=c1nc(NCc2ccccc2)c2ccc(Cl)cc2n1-c1ccccc1` [Example 23, 4-(benzylamino)-7-chloro-1-phenyl-quinazolin-2(1H)-one] displayed an IC50 of 0.2 to 0.5 µM.

`O=c1nc(N2CCC2)c2ccc(Cl)cc2n1-c1ccccc1` [Example 25, 4-(azetidin-1-yl)-7-chloro-1-phenyl-quinazolin-2(1H)-one] displayed a half-maximal inhibitory concentration (IC50) of less than 0.2 µM.

The molecule `O=c1nc(N2CC[C@H](O)C2)c2ccc(Cl)cc2n1-c1ccccc1` [Example 26, (S)-7-chloro-4-(3-hydroxypyrrolidin-1-yl)-1-phenylquinazolin-2(1H)-one] displayed an IC50 of less than 0.2 µM.

As for `CN1CCN(c2nc(=O)n(-c3ccccc3)c3cc(Cl)ccc23)CC1` [Example 27, 7-chloro-4-(4-methylpiperazin-1-yl)-1-phenyl-quinazolin-2(1H)-one], the half-maximal inhibitory concentration (IC50) was 1 to 10 µM.

Take `O=c1nc(N2CCOCC2)c2ccc(Cl)cc2n1-c1ccccc1` [Example 28, 7-chloro-4-morpholino-1-phenyl-quinazolin-2(1H)-one]: the half-maximal inhibitory concentration (IC50) fell in the range of 0.2 to 0.5 µM.

`O=c1nc(-n2cccn2)c2ccc(Cl)cc2n1-c1ccccc1` [Example 29, 7-chloro-1-phenyl-4-(1H-pyrazol-1-yl)quinazolin-2(1H)-one] yielded an IC50 of 1 to 10 µM.

`O=c1nc(NCC(F)F)c2ccc(Cl)cc2n1-c1ccccc1` [Example 31, 7-chloro-4((2,2-difluoroethyl)amino)-1-phenyl-quinazolin-2 (1H)-one] displayed an IC50 of 0.5 to 1 µM.

In turn, `O=c1nc(Nc2ccccn2)c2ccc(Cl)cc2n1-c1ccccc1` [Example 32, 7-chloro-1-phenyl-4-(pyridin-2-yl-amino)quinazolin-2(1H)-one] returned an IC50 of 0.2 to 0.5 µM.

On to `CN(C)c1nc(=O)n(-c2ccccc2)c2cc(Br)ccc12` [Example 34, 7-bromo-4-(dimethylamino)-1-phenyl-quinazolin-2(1H)-one], for which the IC50 was less than 0.2 µM.

On to `CN(C)c1nc(=O)n(-c2ccccc2)c2cc(F)ccc12` [Example 35, 4-(dimethylamino)-7-fluoro-1-phenyl-quinazolin-2(1H)-one], for which the IC50 was less than 0.2 µM.

Turning to `CN(C)c1nc(=O)n(-c2ccc(F)cc2)c2cc(Cl)ccc12` [Example 36, 4-(dimethylamino)-7-chloro-1-(4-fluorophenyl)-hydroquinazolin-2-one], the IC50 was less than 0.2 µM.
